In article PMC8500670, “A selective WDR5 degrader inhibits acute myeloid leukemia in patient-derived mouse models” (Science translational medicine, 2021):

Key:
Experiment in all cases: biochemical
Design in all cases: protein methyltransferase inhibition panel, single concentration, duplicate
GLP = molecular target: T1, GLP (Homo sapiens, UniProt Q9H9B1)
T1 construct: gene EHMT1
T1 sequence (Q9H9B1 1-1298): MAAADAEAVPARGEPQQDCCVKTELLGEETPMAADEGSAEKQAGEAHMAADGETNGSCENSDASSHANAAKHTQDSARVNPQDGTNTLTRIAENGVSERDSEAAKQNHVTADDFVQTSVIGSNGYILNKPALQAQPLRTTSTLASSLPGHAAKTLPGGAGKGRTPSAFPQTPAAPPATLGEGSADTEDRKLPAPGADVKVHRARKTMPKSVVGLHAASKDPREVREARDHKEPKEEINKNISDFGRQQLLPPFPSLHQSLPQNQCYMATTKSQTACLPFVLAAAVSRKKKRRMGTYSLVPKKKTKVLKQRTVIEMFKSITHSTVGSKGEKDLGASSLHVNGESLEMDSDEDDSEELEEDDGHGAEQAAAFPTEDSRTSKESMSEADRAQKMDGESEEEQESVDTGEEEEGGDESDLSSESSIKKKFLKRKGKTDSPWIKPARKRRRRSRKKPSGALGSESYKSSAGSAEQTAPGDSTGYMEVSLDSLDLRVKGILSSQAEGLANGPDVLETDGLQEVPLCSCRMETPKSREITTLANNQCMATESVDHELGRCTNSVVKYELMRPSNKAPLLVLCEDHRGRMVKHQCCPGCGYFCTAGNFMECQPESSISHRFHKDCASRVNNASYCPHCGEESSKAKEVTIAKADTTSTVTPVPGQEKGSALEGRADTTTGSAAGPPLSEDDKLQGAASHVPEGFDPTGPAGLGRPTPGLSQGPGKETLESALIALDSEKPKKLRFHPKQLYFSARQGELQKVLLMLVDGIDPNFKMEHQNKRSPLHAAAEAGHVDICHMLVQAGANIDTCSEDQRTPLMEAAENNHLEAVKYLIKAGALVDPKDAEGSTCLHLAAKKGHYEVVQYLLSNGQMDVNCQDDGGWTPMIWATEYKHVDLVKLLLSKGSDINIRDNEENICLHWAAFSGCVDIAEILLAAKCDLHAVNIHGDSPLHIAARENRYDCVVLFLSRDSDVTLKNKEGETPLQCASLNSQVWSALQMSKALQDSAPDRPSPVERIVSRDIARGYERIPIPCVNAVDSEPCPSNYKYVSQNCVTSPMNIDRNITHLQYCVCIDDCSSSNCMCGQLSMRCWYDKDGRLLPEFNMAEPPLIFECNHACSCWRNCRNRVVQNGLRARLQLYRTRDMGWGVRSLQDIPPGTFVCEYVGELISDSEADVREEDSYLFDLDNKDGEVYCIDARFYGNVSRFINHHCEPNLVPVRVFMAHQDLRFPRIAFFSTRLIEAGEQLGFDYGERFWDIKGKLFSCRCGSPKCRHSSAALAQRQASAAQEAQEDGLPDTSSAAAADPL
Protocol: (§1) We next assessed selectivity of MS67 against 22 protein methyltransferases (table S2) and a broad panel of common drug targets including 45 kinases (table S3) and 44 G protein–coupled receptors (GPCR), ion channels, and transporters (table S4). […] We subsequently determined that MS67 had moderate binding affinity (Ki = 1.0 ± 0.8 μM) to Sigma 2 receptor (fig. S10).

PRMT4 = molecular target: T2, PRMT4 (Homo sapiens, UniProt Q86X55)
T2 construct: gene CARM1
T2 sequence (Q86X55 1-608): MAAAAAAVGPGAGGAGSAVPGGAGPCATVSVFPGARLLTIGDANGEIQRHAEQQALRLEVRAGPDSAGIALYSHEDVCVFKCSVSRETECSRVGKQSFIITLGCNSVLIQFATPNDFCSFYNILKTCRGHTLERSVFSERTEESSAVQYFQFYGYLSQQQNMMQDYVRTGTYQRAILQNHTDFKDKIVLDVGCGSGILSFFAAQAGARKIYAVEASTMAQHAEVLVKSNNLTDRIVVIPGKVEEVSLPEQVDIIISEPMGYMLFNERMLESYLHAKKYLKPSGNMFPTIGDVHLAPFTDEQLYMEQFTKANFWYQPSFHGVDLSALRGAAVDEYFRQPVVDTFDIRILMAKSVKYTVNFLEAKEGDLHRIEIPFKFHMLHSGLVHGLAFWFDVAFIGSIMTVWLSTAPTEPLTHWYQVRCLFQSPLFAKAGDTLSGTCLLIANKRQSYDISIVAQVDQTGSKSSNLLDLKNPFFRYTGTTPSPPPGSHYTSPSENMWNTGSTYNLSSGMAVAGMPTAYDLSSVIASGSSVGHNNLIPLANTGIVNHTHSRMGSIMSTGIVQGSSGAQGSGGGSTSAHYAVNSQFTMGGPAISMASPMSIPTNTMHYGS
Protocol: as §1

PRMT6 = PRMT6 (Homo sapiens, UniProt Q96LA8)
Chain of PRMT6 (Q96LA8 whole entry): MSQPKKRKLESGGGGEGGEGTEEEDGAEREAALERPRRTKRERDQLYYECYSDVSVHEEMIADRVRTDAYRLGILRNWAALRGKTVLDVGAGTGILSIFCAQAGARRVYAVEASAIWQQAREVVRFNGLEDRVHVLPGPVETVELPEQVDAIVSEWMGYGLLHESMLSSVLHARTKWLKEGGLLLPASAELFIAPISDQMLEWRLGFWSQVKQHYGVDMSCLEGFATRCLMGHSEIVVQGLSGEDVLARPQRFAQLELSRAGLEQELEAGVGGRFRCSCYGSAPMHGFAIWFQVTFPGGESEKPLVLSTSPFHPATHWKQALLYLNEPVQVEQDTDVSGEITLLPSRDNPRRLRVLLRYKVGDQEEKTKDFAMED
Protocol: as §1

PRMT8 = PRMT8 (Homo sapiens, UniProt Q9NR22)
Chain of PRMT8 (Q9NR22 whole entry): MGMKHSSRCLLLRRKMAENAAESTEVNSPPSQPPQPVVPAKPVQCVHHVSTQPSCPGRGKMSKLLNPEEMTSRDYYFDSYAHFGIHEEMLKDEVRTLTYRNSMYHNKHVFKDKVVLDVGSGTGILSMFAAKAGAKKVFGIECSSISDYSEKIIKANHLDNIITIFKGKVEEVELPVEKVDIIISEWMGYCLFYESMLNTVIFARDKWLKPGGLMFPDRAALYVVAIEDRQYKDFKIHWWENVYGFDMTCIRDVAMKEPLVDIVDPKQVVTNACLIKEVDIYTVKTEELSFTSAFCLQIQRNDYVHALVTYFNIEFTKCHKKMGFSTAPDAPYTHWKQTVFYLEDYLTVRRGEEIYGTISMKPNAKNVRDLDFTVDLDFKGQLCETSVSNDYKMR
Protocol: as §1

SMYD3 = molecular target: T3, SMYD3 (Homo sapiens, UniProt Q9H7B4)
T3 sequence (Q9H7B4 1-428): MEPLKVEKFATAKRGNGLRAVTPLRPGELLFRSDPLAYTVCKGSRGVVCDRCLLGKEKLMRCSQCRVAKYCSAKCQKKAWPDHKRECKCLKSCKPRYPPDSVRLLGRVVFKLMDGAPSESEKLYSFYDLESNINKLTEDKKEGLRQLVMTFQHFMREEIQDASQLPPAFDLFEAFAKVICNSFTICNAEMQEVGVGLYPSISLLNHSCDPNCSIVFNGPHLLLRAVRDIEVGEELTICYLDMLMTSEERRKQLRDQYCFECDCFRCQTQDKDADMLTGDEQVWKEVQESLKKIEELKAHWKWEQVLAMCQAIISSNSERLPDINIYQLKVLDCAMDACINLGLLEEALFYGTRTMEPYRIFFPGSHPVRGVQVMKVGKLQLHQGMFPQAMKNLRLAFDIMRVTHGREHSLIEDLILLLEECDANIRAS
Protocol: as §1

SUV39H2 = SUV39H2 (Homo sapiens, UniProt Q9H5I1)
Chain of SUV39H2 (Q9H5I1 whole entry): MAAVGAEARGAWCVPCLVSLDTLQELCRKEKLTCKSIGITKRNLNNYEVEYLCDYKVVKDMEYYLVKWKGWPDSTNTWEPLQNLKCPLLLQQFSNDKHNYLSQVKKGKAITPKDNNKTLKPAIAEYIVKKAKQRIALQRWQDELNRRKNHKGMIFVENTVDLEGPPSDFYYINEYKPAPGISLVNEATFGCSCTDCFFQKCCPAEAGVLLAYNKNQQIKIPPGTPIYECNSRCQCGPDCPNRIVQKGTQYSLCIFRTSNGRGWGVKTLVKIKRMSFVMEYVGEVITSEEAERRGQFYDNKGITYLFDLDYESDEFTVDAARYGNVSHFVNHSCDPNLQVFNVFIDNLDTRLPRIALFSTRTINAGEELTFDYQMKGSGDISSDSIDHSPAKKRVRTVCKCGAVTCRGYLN
Protocol: as §1

Measured: inhibition at 10 µM

Cc1ncsc1-c1ccc([C@H](C)NC(=O)[C@@H]2C[C@@H](O)CN2C(=O)[C@@H](NC(=O)CNC(=O)c2ccc(F)c(-c3ccc(N4C[C@@H](C)N(C)[C@@H](C)C4)c(NC(=O)c4c[nH]c(=O)cc4C(F)(F)F)c3)c2)C(C)(C)C)cc1 [MS67]
< 10%: GLP | PRMT4 | PRMT6 | PRMT8 | SMYD3 | SUV39H2
